≈ marks a conversion by molar mass, not a printed value.
Tests used:
[1] = Stability of compound in PBS at pH 7.4 assessed as half life; format: physicochemical
[2] = Stability of compound in PBS at pH 5.5 assessed as half life; format: physicochemical
[3] = Stability of compound in PBS at pH 4.9 assessed as half life; format: physicochemical
[4] = Cmax in rat in presence of Ritonavir; format: ADME; conditions: in vivo
[5] = AUC in rat in presence of Ritonavir; format: ADME; parameters: concentration or dose not given beside the values; conditions: in vivo
[6] = Water solubility of compound; format: physicochemical
[7] = Metabolic stability in rat liver microsome assessed as half life […]; format: ADME; conditions: liver microsomes
[8] = Solubility of compound; format: physicochemical
P-glycoprotein = assay: Efflux ratio of apparent permeability across basal to apical membrane over apical to basal membrane in human Caco-2 cells in absence of P-glycoprotein; format: ADME, cell-based
[9] = Stability of compound in PBS buffer at pH 7.3 assessed as half life; format: physicochemical

Cc1cccc(C)c1OCC(=O)O[C@H](C(=O)N1CSC(C)(C)[C@H]1C(=O)NC(C)(C)C)[C@@H](N)Cc1ccccc1.Cl
half-life [1]: < 1 min
half-life [2]: 4.5 min
half-life [3]: 24.8 min

Cc1nc(COc2ccc(C[C@H](NC(=O)O[C@H]3CO[C@H]4OCC[C@H]43)[C@@H](CN(CC(C)C)S(=O)(=O)c3ccc4c(c3)OCO4)OC(=O)COCCOCC(=O)N(C)CCc3ccccn3)cc2)cs1
Cmax ([4]; read-out: Cmax): 513 ng/mL
AUC ([5]; read-out: AUC): 4220 ng·h/mL

Cc1nc(COc2ccc(C[C@H](NC(=O)O[C@H]3CO[C@H]4OCC[C@H]43)[C@@H](CN(CC(C)C)S(=O)(=O)c3ccc4c(c3)OCO4)OC(=O)CONC(=N)N)cc2)cs1
Cmax ([4]; read-out: Cmax): 460 ng/mL
AUC ([5]; read-out: AUC): > 5000 ng·h/mL

Cc1cccc(C)c1OCC(=O)N[C@@H](Cc1ccccc1)[C@H](O)C(=O)N1CSC[C@H]1C(=O)NC(C)(C)C
solubility [6]: 0.023 mg/mL (≈ 0.0436 mM)

CC(C)[C@@H](N)C(=O)N[C@@H](C(=O)O[C@H](CN1C[C@H]2CCCC[C@H]2C[C@H]1C(=O)NC(C)(C)C)[C@H](Cc1ccccc1)NC(=O)[C@H](CC(N)=O)NC(=O)c1ccc2ccccc2n1)C(C)C
half-life [7]: 296 min

CC(C)(C)NC(=O)[C@@H]1CSCN1C(=O)[C@@H](OC(=O)COc1ccccc1)[C@@H](N)Cc1ccccc1.Cl
half-life [1]: < 1 min
half-life [2]: 2.9 min
solubility [6]: 32 mg/mL
half-life [3]: 21.2 min

Cc1nc(COc2ccc(C[C@H](NC(=O)O[C@H]3CO[C@H]4OCC[C@H]43)[C@@H](CN(CC(C)C)S(=O)(=O)c3ccc4c(c3)OCO4)OC(=O)COC(=O)[C@@H](N)CC(C)C)cc2)cs1
Cmax ([4]; read-out: Cmax): 776 ng/mL
AUC ([5]; read-out: AUC): 3960 ng·h/mL

Cc1ccccc1OCC(=O)O[C@H](C(=O)N1CSC(C)(C)[C@H]1C(=O)NC(C)(C)C)[C@@H](N)Cc1ccccc1.Cl
half-life [1]: < 1 min
half-life [2]: 2.6 min
solubility [6]: 14 mg/mL
half-life [3]: 20.8 min

Cc1nc(COc2ccc(C[C@H](NC(=O)O[C@H]3CO[C@H]4OCC[C@H]43)[C@H](O)CN(CC(C)C)S(=O)(=O)c3ccc4c(c3)OCO4)cc2)cs1 [BRECANAVIR]
Cmax [4]: 696 ng/mL
AUC [5]: 1960 ng·h/mL

Cc1nc(COc2ccc(C[C@H](NC(=O)O[C@H]3CO[C@H]4OCC[C@H]43)[C@@H](CN(CC(C)C)S(=O)(=O)c3ccc4c(c3)OCO4)OC(=O)COCCn3ccnc3)cc2)cs1
Cmax ([4]; read-out: Cmax): 322 ng/mL
AUC ([5]; read-out: AUC): > 5000 ng·h/mL

Cc1cccc(C)c1OCC(=O)N[C@@H](Cc1ccccc1)[C@H](OC(=O)CCCC(=O)NCCN1CCOCC1)C(=O)N1CSC(C)(C)[C@H]1C(=O)NC(C)(C)C
solubility [8]: 57.1 mg/mL (≈ 73 mM)

Cc1nc(COc2ccc(C[C@H](NC(=O)O[C@H]3CO[C@H]4OCC[C@H]43)[C@@H](CN(CC(C)C)S(=O)(=O)c3ccc4c(c3)OCO4)OC(=O)COC(=O)CN(C)CCc3ccccn3)cc2)cs1
Cmax ([4]; read-out: Cmax): 791 ng/mL
AUC ([5]; read-out: AUC): 5350 ng·h/mL

Cc1cccc(C)c1OCC(=O)N[C@@H](Cc1ccccc1)[C@H](OC(=O)CCC(=O)NCCN)C(=O)N1CSC(C)(C)[C@H]1C(=O)NC(C)(C)C
solubility [8]: 77.1 mg/mL (≈ 110 mM)

Cc1ccccc1OCC(=O)N[C@@H](Cc1ccccc1)[C@H](O)C(=O)N1CSC(C)(C)[C@H]1C(=O)NC(C)(C)C
solubility [6]: 0.018 mg/mL (≈ 0.0332 mM)

COCCN(C)CC(=O)OCC(=O)O[C@H](CN(CC(C)C)S(=O)(=O)c1ccc2c(c1)OCO2)[C@H](Cc1ccc(OCc2csc(C)n2)cc1)NC(=O)O[C@H]1CO[C@H]2OCC[C@H]21
Cmax ([4]; read-out: Cmax): 407 ng/mL
AUC ([5]; read-out: AUC): 4710 ng·h/mL

CC(C)(C)NC(=O)[C@H]1N(C(=O)[C@@H](OC(=O)COc2ccccc2)[C@@H](N)Cc2ccccc2)CSC1(C)C.Cl
half-life [1]: < 1 min
half-life [2]: 3.2 min
solubility [6]: 21 mg/mL
half-life [3]: 24 min

Cc1nc(COc2ccc(C[C@H](NC(=O)O[C@H]3CO[C@H]4OCC[C@H]43)[C@@H](CN(CC(C)C)S(=O)(=O)c3ccc4c(c3)OCO4)OC(=O)COC(=O)[C@@H](N)CCCCN)cc2)cs1
Cmax ([4]; read-out: Cmax): 517 ng/mL
AUC ([5]; read-out: AUC): 4220 ng·h/mL

Cc1nc(COc2ccc(C[C@H](NC(=O)O[C@H]3CO[C@H]4OCC[C@H]43)[C@@H](CN(CC(C)C)S(=O)(=O)c3ccc4c(c3)OCO4)OC(=O)COC(=O)CN3CCOCC3)cc2)cs1
Cmax ([4]; read-out: Cmax): 1280 ng/mL
AUC ([5]; read-out: AUC): > 4000 ng·h/mL

CC(C)[C@H](NC(=O)[C@H](N)C(C)C)C(=O)O[C@H](CN1C[C@H]2CCCC[C@H]2C[C@H]1C(=O)NC(C)(C)C)[C@H](Cc1ccccc1)NC(=O)[C@H](CC(N)=O)NC(=O)c1ccc2ccccc2n1
efflux ratio (P-glycoprotein): 1.2
half-life [7]: 224 min

Cc1cccc(C)c1OCC(=O)O[C@H](C(=O)N1CSC[C@H]1C(=O)NC(C)(C)C)[C@@H](N)Cc1ccccc1.Cl
half-life [1]: < 1 min
half-life [2]: 4.2 min
solubility [6]: 15 mg/mL
half-life [3]: 23.8 min

COCCN(CCOC)CC(=O)OCC(=O)O[C@H](CN(CC(C)C)S(=O)(=O)c1ccc2c(c1)OCO2)[C@H](Cc1ccc(OCc2csc(C)n2)cc1)NC(=O)O[C@H]1CO[C@H]2OCC[C@H]21
Cmax ([4]; read-out: Cmax): 1280 ng/mL
AUC ([5]; read-out: AUC): > 4000 ng·h/mL

Cc1cccc(C)c1OCC(=O)N[C@@H](Cc1ccccc1)[C@H](OC(=O)CCC(=O)NCCCN1CCOCC1)C(=O)N1CSC(C)(C)[C@H]1C(=O)NC(C)(C)C
solubility [8]: 73.6 mg/mL (≈ 94.1 mM)

Cc1ccccc1OCC(=O)N[C@@H](Cc1ccccc1)[C@H](O)C(=O)N1CSC[C@H]1C(=O)NC(C)(C)C
solubility [6]: 0.042 mg/mL (≈ 0.0818 mM)

CC(C)(C)NC(=O)[C@H]1C[C@@H]2CCCC[C@@H]2CN1C[C@@H](OC(=O)CCCCO[C@H]1O[C@H](CO)[C@@H](O)[C@H](O)[C@@H]1O)[C@H](Cc1ccccc1)NC(=O)[C@H](CC(N)=O)NC(=O)c1ccc2ccccc2n1
half-life [9]: 50 h

Cc1ccccc1OCC(=O)O[C@H](C(=O)N1CSC[C@H]1C(=O)NC(C)(C)C)[C@@H](N)Cc1ccccc1.Cl
half-life [1]: < 1 min
half-life [2]: 2.4 min
solubility [6]: 15 mg/mL
half-life [3]: 19.6 min

Cc1nc(COc2ccc(C[C@H](NC(=O)O[C@H]3CO[C@H]4OCC[C@H]43)[C@@H](CN(CC(C)C)S(=O)(=O)c3ccc4c(c3)OCO4)OC(=O)COCC(=O)NCc3ccccn3)cc2)cs1
Cmax ([4]; read-out: Cmax): 640 ng/mL
AUC ([5]; read-out: AUC): 6810 ng·h/mL

Cc1cccc(C)c1OCC(=O)N[C@@H](Cc1ccccc1)[C@H](OC(=O)CCC(=O)NCc1cccnc1)C(=O)N1CSC(C)(C)[C@H]1C(=O)NC(C)(C)C
solubility [8]: 30.3 mg/mL (≈ 40.6 mM)

CNCC(=O)OCC(=O)O[C@H](CN(CC(C)C)S(=O)(=O)c1ccc2c(c1)OCO2)[C@H](Cc1ccc(OCc2csc(C)n2)cc1)NC(=O)O[C@H]1CO[C@H]2OCC[C@H]21
Cmax ([4]; read-out: Cmax): 356 ng/mL
AUC ([5]; read-out: AUC): 5600 ng·h/mL

Cc1cccc(C)c1OCC(=O)N[C@@H](Cc1ccccc1)[C@H](OC(=O)CCC(=O)NCc1ccccn1)C(=O)N1CSC(C)(C)[C@H]1C(=O)NC(C)(C)C
solubility [8]: 31.9 mg/mL (≈ 42.8 mM)

Cc1cccc(C)c1OCC(=O)N[C@@H](Cc1ccccc1)[C@H](OC(=O)CCC(=O)NCCN1CCCCC1)C(=O)N1CSC(C)(C)[C@H]1C(=O)NC(C)(C)C
solubility [8]: 47.8 mg/mL (≈ 62.4 mM)

Cc1cccc(C)c1OCC(=O)N[C@@H](Cc1ccccc1)[C@H](OC(=O)CCCC(=O)NCCN)C(=O)N1CSC(C)(C)[C@H]1C(=O)NC(C)(C)C
solubility [8]: 50.3 mg/mL (≈ 70.7 mM)

CC(C)(C)NC(=O)[C@H]1N(C(=O)[C@@H](O)[C@H](Cc2ccccc2)NC(=O)COc2ccccc2)CSC1(C)C
solubility [6]: 0.047 mg/mL (≈ 0.0891 mM)

Cc1cccc(CN(C)CCOCC(=O)O[C@H](CN(CC(C)C)S(=O)(=O)c2ccc3c(c2)OCO3)[C@H](Cc2ccc(OCc3csc(C)n3)cc2)NC(=O)O[C@H]2CO[C@H]3OCC[C@H]32)n1
Cmax ([4]; read-out: Cmax): 401 ng/mL
AUC ([5]; read-out: AUC): 4020 ng·h/mL

Cc1cccc(C)c1OCC(=O)N[C@@H](Cc1ccccc1)[C@H](OC(=O)CCC(=O)NCCN1CCCC1)C(=O)N1CSC(C)(C)[C@H]1C(=O)NC(C)(C)C
solubility [8]: 93.8 mg/mL (≈ 125 mM)

Cc1cccc(C)c1OCC(=O)N[C@@H](Cc1ccccc1)[C@H](OC(=O)CCC(=O)NCc1ccncc1)C(=O)N1CSC(C)(C)[C@H]1C(=O)NC(C)(C)C
solubility [8]: 91.5 mg/mL (≈ 123 mM)

CC(C)(C)NC(=O)[C@@H]1CSCN1C(=O)[C@@H](O)[C@H](Cc1ccccc1)NC(=O)COc1ccccc1
solubility [6]: 0.123 mg/mL (≈ 0.246 mM)

CCN(CC)CC(=O)OCC(=O)O[C@H](CN(CC(C)C)S(=O)(=O)c1ccc2c(c1)OCO2)[C@H](Cc1ccc(OCc2csc(C)n2)cc1)NC(=O)O[C@H]1CO[C@H]2OCC[C@H]21
Cmax ([4]; read-out: Cmax): 318 ng/mL
AUC ([5]; read-out: AUC): 3690 ng·h/mL

Cc1cccc(C)c1OCC(=O)N[C@@H](Cc1ccccc1)[C@H](OC(=O)CCC(=O)NCCN1CCOCC1)C(=O)N1CSC(C)(C)[C@H]1C(=O)NC(C)(C)C
solubility [8]: 53.2 mg/mL (≈ 69.3 mM)

Cc1c(OC(=O)CCCCO[C@H]2O[C@H](CO)[C@@H](O)[C@H](O)[C@@H]2O)cccc1C(=O)N[C@@H](CSc1ccccc1)[C@@H](CN1C[C@H]2CCCC[C@H]2C[C@H]1C(=O)NC(C)(C)C)OC(=O)CCCCO[C@H]1O[C@H](CO)[C@@H](O)[C@H](O)[C@@H]1O
half-life [9]: 50 h

Cc1nc(COc2ccc(C[C@H](NC(=O)O[C@H]3CO[C@H]4OCC[C@H]43)[C@@H](CN(CC(C)C)S(=O)(=O)c3ccc4c(c3)OCO4)OC(=O)CO[n+]3ccccc3)cc2)cs1
Cmax ([4]; read-out: Cmax): 272 ng/mL
AUC ([5]; read-out: AUC): > 7700 ng·h/mL

CC(C)(C)NC(=O)[C@@H]1CN(Cc2cccnc2)CCN1C[C@@H](O)C[C@@H](Cc1ccccc1)C(=O)N[C@H]1c2ccccc2C[C@H]1OC(=O)CCCCO[C@H]1O[C@H](CO)[C@@H](O)[C@H](O)[C@@H]1O
half-life [9]: 50 h

Cc1c(OC(=O)CCCCO[C@H]2O[C@H](CO)[C@@H](O)[C@H](O)[C@@H]2O)cccc1C(=O)N[C@@H](CSc1ccccc1)[C@H](O)CN1C[C@H]2CCCC[C@H]2C[C@H]1C(=O)NC(C)(C)C
half-life [9]: 50 h

Cc1nc(COc2ccc(C[C@H](NC(=O)O[C@H]3CO[C@H]4OCC[C@H]43)[C@@H](CN(CC(C)C)S(=O)(=O)c3ccc4c(c3)OCO4)OC(=O)COCC(=O)Nc3ccn[nH]3)cc2)cs1
Cmax ([4]; read-out: Cmax): 603 ng/mL
AUC ([5]; read-out: AUC): 7040 ng·h/mL

CC(C)(C)NC(=O)[C@@H]1CN(Cc2cccnc2)CCN1C[C@H](C[C@@H](Cc1ccccc1)C(=O)N[C@H]1c2ccccc2C[C@H]1OC(=O)CCCCO[C@H]1O[C@H](CO)[C@@H](O)[C@H](O)[C@@H]1O)OC(=O)CCCCO[C@H]1O[C@H](CO)[C@@H](O)[C@H](O)[C@@H]1O
half-life [9]: 50 h
